Values quoted from earlier work, collected in article PMC4415995 (Advances in Therapy, 2015).

Test system: patients with T2DM
Details: cited from earlier work

Row | SMILES | maximal UGE [g]
1 | Cc1ccc([C@@H]2O[C@H](CO)[C@@H](O)[C@H](O)[C@H]2O)cc1Cc1ccc(-c2ccc(F)cc2)s1 [canagliflozin] | 85 to 100
2 | CCOc1ccc(Cc2cc([C@@H]3O[C@H](CO)[C@@H](O)[C@H](O)[C@H]3O)ccc2Cl)cc1 [dapagliflozin] | 85 to 100
3 | OC[C@H]1O[C@@H](c2ccc(Cl)c(Cc3ccc(O[C@H]4CCOC4)cc3)c2)[C@H](O)[C@@H](O)[C@@H]1O [empagliflozin] | 85 to 100
4 | OC[C@H]1O[C@@H](c2ccc(F)c(Cc3cc4ccccc4s3)c2)[C@H](O)[C@@H](O)[C@@H]1O [ipragliflozin] | 85 to 100
